Patent publication US20230293535A1, “ERBB/BTK INHIBITORS” (Dizal (Jiangsu) Pharmaceutical Co., Ltd., priority 2018, published 2023)
pIC50: −log10 of the molar value. Where a name gives a salt, the structure may show the parent alone. Read-outs that look alike come from different tables or passages of the source.

Assays:
Format in all cases: cell-based
[1] = system: NCI-H1975 EGFR L858R/T790M cells; test: Cell proliferation, NCI-H1975 EGFR L858R/T790M (CellTiter-Glo, 72 h); details: Homo sapiens, NCI-H1975, 72 h;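 further: viable cells quantified by luciferase-based ATP luminescence, proliferation expressed relative to DMSO-treated wells (100%) after subtracting a parallel plate read at the time of dosing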
[2] = system: DB cells; test: BTK (wt) cell proliferation, DB (CellTiter-Glo, 72 h); details: Homo sapiens, DB, DB cells, CellTiter-Glo, read-out: Non-BCR activated DB GI50;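 further: DB cells in 384-well plates given a dilution series of compound, viable cells read by ATP luminescence, growth expressed versus DMSO control after subtracting a time-zero plate reading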
Protocol: (§1) OCI-LY-10 at 3,750 cells/well, TMD-8 and Ri-1 at 2,000 cells/well, and DB at 1,250 cells/well, respectively, were sorted into 384-well plates in RPMI1640 medium with 10% FBS. After overnight incubation, all cells were incubated with compound at a series of concentrations. Meanwhile, a duplicated plate of each cell line was prepared for measuring G0 value. The dosed plates were further incubated for 72 hours and the number of viable cells was measured by CellTiter-Glo® Luminescent Cell Viability Assay (Promega), a luminescent method for determining the number of viable cells through measurement of cellular ATP concentration using Envision plate reader (PerkinElmer). The percentage of proliferation was calculated as: % Proliferation = 100 × (G3 value of sample well - G0 value)/(G3 value of DMSO control - G0 value).

[3] = system: Ri-1 cells; test: BTK (wt) cell proliferation, Ri-1 (CellTiter-Glo, 72 h); details: Ri-1, 72 h, Ri-1 cells, 72 h, CellTiter-Glo; read-out: BTK WT Ri-1 GI50;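 further: viable cells quantified as cellular ATP luminescence, proliferation normalized to a time-zero plate and the DMSO control, compounds tested across a dilution series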
Protocol: as §1

[4] = molecular target: T1, WT EGFR (Homo sapiens, UniProt P00533); test: WT EGFR cellular phosphorylation inhibition in A-431 (hEGF stimulated, MSD); details: A431 cells, 4 h compound, then 100 ng/ml hEGF 10 min;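 further: electrochemiluminescence read-out of EGFR Tyr1068 phosphorylation expressed as ratio to total EGFR, cells kept in medium with 1% FBS, compounds tested as a concentration series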
T1 construct: host or cells: A-431

[5] = system: Ba/F3 EGFR ASV ins cells; test: Cell proliferation, Ba/F3 EGFR ASV ins (CellTiter-Glo, 72 h); details: Ba/F3 EGFR, 72 h;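 further: IL3-independent Ba/F3 cells transduced with EGFR V769_D770insASV, cellular ATP luminescence after compound exposure, growth relative to DMSO control with the day-0 baseline reading subtracted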
[6] = molecular target: T2, human EGFR exon 20 H773_V774insNPH (Homo sapiens, UniProt P00533, INS773NPH); test: EGFR Exon20 NPH insertion cellular phosphorylation inhibition (MSD pEGFR Y1068/total EGFR); details: Ba/F3 EGFR NPH ins cells, 4 h compound, p-EGFR(Y1068)/total EGFR;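 further: IL3-independent Ba/F3 cells with constitutively phosphorylated EGFR, compound exposure at 37 °C under 5% CO2, electrochemiluminescent MSD measurement of the p-EGFR to total EGFR ratio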
T2 construct: host or cells: Ba/F3
Protocol: (§2) One day before the test, WT or mutant cells were seeded in 96 well plates at appropriate concentrations with corresponding growth media supplemented with 1% FBS, and incubated overnight. The next day, tested compounds at a series of concentrations were added into each individual well of the plates, and the plates were incubated for 4 h at 37° C. with 5% CO2.
The EGFR (Y1068) phosphorylation level (activity) of cells in each well were then measured with MSD kit named “MULTI-SPOT®96 4-Spot HB Prototype EGFR Triplex [sequence]: pEGFR(Tyr1068),pEGFR(Tyr1173), Total EGFR” according to the manufacturer’s instruction (MESO SCALE DISCOVERY, Cat# N45ZB-1). The assay is an electrochemiluminescent method for determining both phosphorylated and total EGFR of cells with an MSD SECTOR® Imager and the ratio of p-EGFR/total EGFR can be generated by the machine.

[7] = system: WT EGFR cell line A-431; test: Cell proliferation, WT EGFR A431 (CellTiter-Glo, 72 h); details: Homo sapiens, A-431, 72 h;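 further: proliferation from a luminescent ATP viability signal, expressed as 100 × (treated minus time-zero plate) over (DMSO control minus time-zero plate), cells grown with 10% FBS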
[8] = system: Her2 exon 20 insertion YVMA transduced NIH-3T3 cell line; test: Cell proliferation, Her2 YVMAins NIH-3T3 (CellTiter-Glo, 72 h); details: Mus musculus, NIH3T3, 72 h, Her2 YVMAins cells, 72 h proliferation; read-out: Her2 Exon 20 YVMA insertion GI50;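 further: viable cells quantified by ATP luminescence, growth over a day-zero baseline plate expressed as percent of DMSO control growth, compound dilution series in 10% FBS medium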
[9] = system: Ba/F3 EGFR NPH ins cells; test: Cell proliferation, Ba/F3 EGFR NPH ins (CellTiter-Glo, 72 h); details: Ba/F3 EGFR, 72 h;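 further: IL3-independent cells carrying constitutively phosphorylated EGFR, compound dilution series, viable cells quantified by ATP luminescence, growth relative to DMSO wells after subtracting pre-dosing (day 0) baseline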
[10] = system: OCI-LY-10 cells; test: BTK (wt) cell proliferation, OCI-LY-10 (CellTiter-Glo, 72 h); details: Homo sapiens, OCI-Ly10, 72 h, OCI-LY-10 cells, 72 h, CellTiter-Glo; read-out: BTK WT OCI-LY-10 GI50;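 further: viable cells quantified via cellular ATP luminescence, proliferation given as percent of DMSO control after subtracting a duplicate plate read at time of dosing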
[11] = molecular target: T3, human Her2 exon 20 insertion mutation YVMA (Homo sapiens, UniProt P04626, INS775YVMA); test: Her2 Exon 20 YVMA insertion cellular phosphorylation inhibition (MSD p-Her2 Y1248/total Her2); details: Her2 YVMAins cells, 4 h compound;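 further: lentivirally transduced NIH-3T3 cells in 1% FBS medium, electrochemiluminescent MSD read-out, graded compound concentrations at 37 °C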
T3 construct: expressed in transfected cells; host or cells: NIH-3T3, lentiviral transduction, puromycin selection

[12] = system: TMD-8 cells; test: BTK (wt) cell proliferation, TMD-8 (CellTiter-Glo, 72 h); details: Homo sapiens, TMD8, 72 h, TMD-8 cells, 72 h, CellTiter-Glo; read-out: BTK WT TMD-8 GI50;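 further: viable cells quantified by ATP-based luminescence, proliferation expressed as percent of DMSO control after subtracting a time-zero baseline plate read at dosing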
[13] = molecular target: T4, human EGFR exon 20 V769_D770insASV (Homo sapiens, UniProt P00533, INS769ASV); test: EGFR Exon20 ASV insertion cellular phosphorylation inhibition (MSD pEGFR Y1068/total EGFR); details: Ba/F3 EGFR ASV ins cells, 4 h compound, p-EGFR(Y1068)/total EGFR;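 further: electrochemiluminescent readout on an MSD SECTOR Imager, IL3-independent transduced cells in medium with 1% FBS, compound concentration series at 37 °C and 5% CO2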
T4 construct: expressed in transfected cells; host or cells: Ba/F3 (DSMZ ACC-300), lentiviral transduction, puromycin selection, IL3 depletion

[14] = molecular target: T5, EGFR L858R&T790M (Homo sapiens, UniProt P00533, L858R/T790M); test: EGFR L858R and T790M cellular phosphorylation inhibition in NCI-H1975 (MSD); details: NCI-H1975 cells, 4 h compound, p-EGFR(Y1068)/total EGFR; read-out: EGFR L858R and T790M mutation IC50;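 further: phosphorylated and total EGFR detected by electrochemiluminescence, cells exposed to compound in medium containing 1% FBS at 37 °C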
T5 construct: host or cells: NCI-H1975
Protocol: as §2
The EGFR (Y1068) phosphorylation level (activity) of cells in each well were then measured with MSD kit named “MULTI-SPOT®96 4-Spot HB Prototype EGFR Triplex [sequence]: pEGFR(Tyr1068),pEGFR(Tyr1173), Total EGFR” according to the manufacturer’s instruction (MESO SCALE DISCOVERY, Cat# N45ZB-1). The assay is an electrochemiluminescent method for determining both phosphorylated and total EGFR of cells with an MSD SECTOR® Imager and the ratio of p-EGFR/total EGFR can be generated by the machine. The Her2 (Y1248) phosphorylation level (activity) of cells in each well were measured with MSD Kit named “Phospho-ErbB2 (Tyr1248) Assay Whole Cell Lysate Kit” according to the manufacturer’s instruction (MESO SCALE DISCOVERY, Cat# K151CLD-3). The assay is an electrochemiluminescent method (MESO SCALE DISCOVERY) for determining both phosphorylated and total Her2 of cells with an MSD SECTOR® Imager and then the ratio of p-Her2/total Her2 can be generated by the machine.

[15] = NCI-H1975, 72 h proliferation, read-out: EGFR L858R and T790M mutation GI50
[16] = Ba/F3 EGFR ASV ins, 72 h proliferation, read-out: EGFR Exon20 ASV insertion GI50
[17] = A431, 72 h proliferation, read-out: EGFR WT A431 GI50
[18] = Ba/F3 EGFR NPH ins, 72 h proliferation, read-out: EGFR Exon20 NPH insertion GI50

T2 sequence (P00533 with tags, fused parts or gaps INS773NPH): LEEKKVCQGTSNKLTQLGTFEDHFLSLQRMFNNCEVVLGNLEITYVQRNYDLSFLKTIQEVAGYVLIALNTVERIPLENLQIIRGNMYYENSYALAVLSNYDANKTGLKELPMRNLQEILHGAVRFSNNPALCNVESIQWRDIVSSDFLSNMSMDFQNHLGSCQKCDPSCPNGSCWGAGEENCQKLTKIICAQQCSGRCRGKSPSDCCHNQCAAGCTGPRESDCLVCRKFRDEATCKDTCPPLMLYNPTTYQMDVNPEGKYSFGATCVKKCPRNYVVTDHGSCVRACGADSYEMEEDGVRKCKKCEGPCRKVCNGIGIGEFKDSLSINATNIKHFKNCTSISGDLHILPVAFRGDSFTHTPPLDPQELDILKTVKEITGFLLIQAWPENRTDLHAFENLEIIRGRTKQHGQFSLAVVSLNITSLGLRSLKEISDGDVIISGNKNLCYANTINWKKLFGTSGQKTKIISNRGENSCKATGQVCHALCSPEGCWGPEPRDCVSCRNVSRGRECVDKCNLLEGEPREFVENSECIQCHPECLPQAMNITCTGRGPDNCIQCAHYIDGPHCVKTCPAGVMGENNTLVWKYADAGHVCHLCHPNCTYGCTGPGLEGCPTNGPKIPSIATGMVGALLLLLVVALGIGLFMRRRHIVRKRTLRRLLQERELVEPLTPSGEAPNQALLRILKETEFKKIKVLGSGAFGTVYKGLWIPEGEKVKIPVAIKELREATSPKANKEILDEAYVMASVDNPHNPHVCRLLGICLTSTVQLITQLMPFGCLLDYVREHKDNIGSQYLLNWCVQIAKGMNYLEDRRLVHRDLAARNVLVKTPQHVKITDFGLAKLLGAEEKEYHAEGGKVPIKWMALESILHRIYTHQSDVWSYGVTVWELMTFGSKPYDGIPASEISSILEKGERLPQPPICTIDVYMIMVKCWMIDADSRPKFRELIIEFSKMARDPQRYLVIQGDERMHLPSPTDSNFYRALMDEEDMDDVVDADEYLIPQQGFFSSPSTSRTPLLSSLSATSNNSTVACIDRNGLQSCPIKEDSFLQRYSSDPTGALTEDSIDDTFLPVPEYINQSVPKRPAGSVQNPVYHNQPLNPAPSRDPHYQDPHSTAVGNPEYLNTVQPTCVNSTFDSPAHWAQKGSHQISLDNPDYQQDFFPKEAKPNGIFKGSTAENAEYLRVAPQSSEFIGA
T5 sequence (P00533 25-1210 T790M/L858R): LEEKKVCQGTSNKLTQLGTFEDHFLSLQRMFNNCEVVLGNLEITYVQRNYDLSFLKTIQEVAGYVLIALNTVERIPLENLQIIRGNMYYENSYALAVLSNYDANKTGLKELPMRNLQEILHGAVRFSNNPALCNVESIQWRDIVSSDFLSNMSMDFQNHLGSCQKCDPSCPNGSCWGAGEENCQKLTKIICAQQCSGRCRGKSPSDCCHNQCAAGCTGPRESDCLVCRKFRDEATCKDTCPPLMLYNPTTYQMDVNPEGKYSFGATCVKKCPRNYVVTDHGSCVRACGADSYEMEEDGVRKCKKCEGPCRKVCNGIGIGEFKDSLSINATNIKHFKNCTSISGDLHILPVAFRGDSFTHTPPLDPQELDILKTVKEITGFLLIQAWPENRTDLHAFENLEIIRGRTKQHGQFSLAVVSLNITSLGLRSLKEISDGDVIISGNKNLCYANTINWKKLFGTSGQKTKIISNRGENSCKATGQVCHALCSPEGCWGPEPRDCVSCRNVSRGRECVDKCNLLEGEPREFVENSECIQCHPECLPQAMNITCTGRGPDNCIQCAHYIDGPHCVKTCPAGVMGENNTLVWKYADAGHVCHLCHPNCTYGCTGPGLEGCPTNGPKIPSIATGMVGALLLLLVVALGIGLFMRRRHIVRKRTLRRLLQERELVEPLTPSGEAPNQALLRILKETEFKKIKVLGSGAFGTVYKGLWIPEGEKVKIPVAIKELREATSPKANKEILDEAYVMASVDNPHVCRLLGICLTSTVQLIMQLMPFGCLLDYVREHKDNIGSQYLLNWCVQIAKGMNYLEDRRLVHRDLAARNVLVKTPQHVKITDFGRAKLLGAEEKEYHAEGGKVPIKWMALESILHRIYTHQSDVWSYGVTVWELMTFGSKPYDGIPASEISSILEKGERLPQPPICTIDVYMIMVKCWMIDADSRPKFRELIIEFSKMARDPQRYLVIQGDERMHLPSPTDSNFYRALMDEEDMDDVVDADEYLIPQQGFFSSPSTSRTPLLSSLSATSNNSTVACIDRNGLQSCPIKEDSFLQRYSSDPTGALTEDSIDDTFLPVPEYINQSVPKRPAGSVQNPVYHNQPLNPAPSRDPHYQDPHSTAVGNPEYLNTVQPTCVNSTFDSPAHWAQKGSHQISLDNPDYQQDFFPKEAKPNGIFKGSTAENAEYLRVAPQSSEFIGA
T1 sequence (P00533 25-1210): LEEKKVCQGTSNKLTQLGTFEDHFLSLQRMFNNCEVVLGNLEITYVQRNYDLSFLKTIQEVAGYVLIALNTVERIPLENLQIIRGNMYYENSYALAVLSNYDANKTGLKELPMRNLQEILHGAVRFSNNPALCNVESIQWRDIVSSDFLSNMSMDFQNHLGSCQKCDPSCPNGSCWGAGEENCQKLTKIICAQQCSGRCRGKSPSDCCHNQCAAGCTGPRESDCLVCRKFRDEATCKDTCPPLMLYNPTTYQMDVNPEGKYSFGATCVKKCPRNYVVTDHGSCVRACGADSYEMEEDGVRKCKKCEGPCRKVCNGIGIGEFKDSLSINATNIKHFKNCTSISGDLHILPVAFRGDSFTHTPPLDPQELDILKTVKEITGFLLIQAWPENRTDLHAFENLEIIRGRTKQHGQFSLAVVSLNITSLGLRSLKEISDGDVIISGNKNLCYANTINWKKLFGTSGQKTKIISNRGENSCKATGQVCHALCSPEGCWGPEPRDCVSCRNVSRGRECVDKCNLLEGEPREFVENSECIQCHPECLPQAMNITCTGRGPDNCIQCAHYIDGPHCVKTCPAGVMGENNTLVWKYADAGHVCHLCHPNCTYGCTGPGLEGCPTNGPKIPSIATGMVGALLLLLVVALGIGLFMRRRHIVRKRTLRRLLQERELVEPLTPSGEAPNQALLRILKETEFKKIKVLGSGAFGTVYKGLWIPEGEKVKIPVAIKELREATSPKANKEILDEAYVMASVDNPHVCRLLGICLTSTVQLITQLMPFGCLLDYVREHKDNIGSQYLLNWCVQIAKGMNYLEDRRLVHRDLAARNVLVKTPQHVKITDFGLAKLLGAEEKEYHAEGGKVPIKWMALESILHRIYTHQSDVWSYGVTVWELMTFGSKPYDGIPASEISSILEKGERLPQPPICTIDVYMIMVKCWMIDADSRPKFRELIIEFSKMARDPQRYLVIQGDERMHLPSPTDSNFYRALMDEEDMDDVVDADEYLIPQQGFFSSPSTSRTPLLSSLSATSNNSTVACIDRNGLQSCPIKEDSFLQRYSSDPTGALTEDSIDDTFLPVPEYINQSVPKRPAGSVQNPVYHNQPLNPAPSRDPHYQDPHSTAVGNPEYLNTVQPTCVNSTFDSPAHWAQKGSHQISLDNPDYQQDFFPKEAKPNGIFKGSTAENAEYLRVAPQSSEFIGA
T3 sequence (P04626 with tags, fused parts or gaps INS775YVMA): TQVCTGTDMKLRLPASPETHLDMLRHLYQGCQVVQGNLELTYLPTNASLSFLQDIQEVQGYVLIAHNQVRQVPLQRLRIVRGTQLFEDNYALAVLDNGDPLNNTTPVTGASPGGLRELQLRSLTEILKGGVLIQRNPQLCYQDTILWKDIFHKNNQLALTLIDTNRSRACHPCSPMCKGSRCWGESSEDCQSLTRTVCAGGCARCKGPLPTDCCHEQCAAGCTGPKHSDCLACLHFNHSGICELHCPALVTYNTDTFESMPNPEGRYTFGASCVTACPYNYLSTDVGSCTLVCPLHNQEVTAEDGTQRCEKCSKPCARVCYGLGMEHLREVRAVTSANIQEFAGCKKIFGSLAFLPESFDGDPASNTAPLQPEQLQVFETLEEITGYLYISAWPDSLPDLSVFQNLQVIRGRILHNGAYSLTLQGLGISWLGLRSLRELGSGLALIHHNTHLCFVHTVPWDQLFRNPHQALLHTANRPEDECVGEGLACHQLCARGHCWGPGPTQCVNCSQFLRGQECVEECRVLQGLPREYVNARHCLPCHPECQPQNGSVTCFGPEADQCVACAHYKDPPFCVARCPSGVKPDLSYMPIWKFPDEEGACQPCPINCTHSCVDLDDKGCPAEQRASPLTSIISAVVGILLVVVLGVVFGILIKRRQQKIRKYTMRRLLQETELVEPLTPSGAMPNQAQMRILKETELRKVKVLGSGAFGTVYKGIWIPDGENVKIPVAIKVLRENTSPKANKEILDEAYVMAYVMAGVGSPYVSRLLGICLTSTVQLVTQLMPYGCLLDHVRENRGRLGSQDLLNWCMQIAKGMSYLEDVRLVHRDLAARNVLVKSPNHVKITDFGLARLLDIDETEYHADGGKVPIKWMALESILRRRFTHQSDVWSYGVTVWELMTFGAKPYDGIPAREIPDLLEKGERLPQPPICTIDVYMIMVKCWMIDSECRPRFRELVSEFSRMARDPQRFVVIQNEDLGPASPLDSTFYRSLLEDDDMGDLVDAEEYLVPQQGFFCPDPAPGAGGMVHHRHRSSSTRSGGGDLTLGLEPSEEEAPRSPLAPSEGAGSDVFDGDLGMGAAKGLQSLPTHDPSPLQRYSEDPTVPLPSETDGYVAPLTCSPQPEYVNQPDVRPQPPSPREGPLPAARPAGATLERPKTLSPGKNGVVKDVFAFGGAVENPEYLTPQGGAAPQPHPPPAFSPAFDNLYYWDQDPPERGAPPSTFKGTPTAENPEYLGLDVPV

| GI50 [1, 15] | pIC50 [4] | GI50 [5, 16] | pIC50 [6] | GI50 [7, 17] | GI50 [9, 18] | GI50 [10] | pIC50 [11] | pIC50 [13] | pIC50 [14] | SMILES | GI50 [2] | GI50 [3] | GI50 [8] | GI50 [12] | GI50 ([1]; read-out: EGFR L858R and T790M mutation GI50 (nM)) | GI50 ([5]; read-out: EGFR Exon20 ASV insertion GI50 (nM)) | GI50 ([7]; read-out: EGFR WT A431 GI50 (nM)) | GI50 ([9]; read-out: EGFR Exon20 NPH insertion GI50 (nM)) |
| --- | --- | --- | --- | --- | --- | --- | --- | --- | --- | --- | --- | --- | --- | --- | --- | --- | --- | --- |
| 4.2 nM | 7.45 | 45.1 nM | 7.75 | 14.3 nM | 63.8 nM | 14.6 nM | 8.11 | 7.81 | 9.00 | C=CC(=O)Nc1cc(Nc2ncnc(Nc3cc(Cl)c(F)cc3C(C)(O)CC)n2)c(OC)cc1N1CC[C@@H]1CN(C)C (stereo partly drawn) [Compound 56, N-(5-(4-(5-chloro-4-fluoro-2-(2-hydroxybutan-2-yl)phenylamino)-1,3,5-triazin-2-ylamino)-2-((R)-2-((dimethylamino)methyl)azetidin-1-yl)-4-methoxyphenyl)acrylamide] | > 3000 nM | 13.4 nM | 76.6 nM | 7.07 nM |  |  |  |  |
| 1.3 nM | 7.98 | 11.4 nM | 8.07 | 6.1 nM | 14.8 nM | 72 nM | 8.59 | 8.15 | 9.40 | C=CC(=O)Nc1cc(Nc2ncnc(Nc3cc(F)c(F)cc3C(C)(O)CC)n2)c(OC)cc1N1CCC[C@@H]1CN(C)C (stereo partly drawn) [Compound 57, N-(5-(4-(4,5-difluoro-2-(2-hydroxybutan-2-yl)phenylamino)-1,3,5-triazin-2-ylamino)-2-((R)-2-((dimethylamino)methyl)pyrrolidin-1-yl)-4-methoxyphenyl)acrylamide] | > 3000 nM | 34.6 nM | 18.7 nM | 22.9 nM |  |  |  |  |
| 13.1 nM | 6.20 | 251 nM | 6.53 | 178 nM | 210 nM | 320 nM | 6.93 | 7.11 | 8.44 | C=CC(=O)Nc1cc(Nc2ncnc(Nc3cc(F)c(F)cc3C(C)(O)CC)n2)c(OC)cc1N1CCC[C@H]1CN(C)C (stereo partly drawn) [Compound 58, N-(5-(4-(4,5-difluoro-2-(2-hydroxybutan-2-yl)phenylamino)-1,3,5-triazin-2-ylamino)-2-((S)-2-((dimethylamino)methyl)pyrrolidin-1-yl)-4-methoxyphenyl)acrylamide] | > 3000 nM | 372 nM | 553 nM | 262 nM |  |  |  |  |
| 2.5 nM | 7.29 | 76.3 nM | 7.54 | 25 nM | 48.6 nM | 13.5 nM | 7.94 | 7.65 | 8.89 | C=CC(=O)Nc1cc(Nc2ncnc(Nc3cc(Cl)c(F)cc3C(C)(C)O)n2)c(OC)cc1N1CC[C@H](N(C)C)C1 [Compound 60, (S)-N-(5-(4-(5-chloro-4-fluoro-2-(2-hydroxypropan-2-yl)phenylamino)-1,3,5-triazin-2-ylamino)-2-(3-(dimethylamino)pyrrolidin-1-yl)-4-methoxyphenyl)acrylamide] | > 3000 nM | 38.9 nM | 102 nM | 11.5 nM |  |  |  |  |
| 3.2 nM | 7.56 | 34.8 nM | 7.71 | 13.3 nM | 45.8 nM | 5.3 nM | 7.94 | 7.97 | 9.30 | C=CC(=O)Nc1cc(Nc2ncnc(Nc3cc(F)c(Cl)cc3C(C)(C)O)n2)c(OC)cc1N1CC[C@@H]1CN(C)C [Compound 62, (R)-N-(5-(4-(4-chloro-5-fluoro-2-(2-hydroxypropan-2-yl)phenylamino)-1,3,5-triazin-2-ylamino)-2-(2-((dimethylamino)methyl)azetidin-1-yl)-4-methoxyphenyl)acrylamide] | > 3000 nM | 84 nM | 114 nM | 3.79 nM |  |  |  |  |
| 1.1 nM | 7.84 | 13.6 nM | 8.23 | 4.4 nM | 17.2 nM | 63.3 nM | 8.85 | 8.19 | 9.40 | C=CC(=O)Nc1cc(Nc2ncnc(Nc3cc(Cl)c(F)cc3C(C)(O)CC)n2)c(OC)cc1N1CCC[C@@H]1CN(C)C (stereo partly drawn) [Compound 63, N-(5-(4-(5-chloro-4-fluoro-2-(2-hydroxybutan-2-yl)phenylamino)-1,3,5-triazin-2-ylamino)-2-((R)-2-((dimethylamino)methyl)pyrrolidin-1-yl)-4-methoxyphenyl)acrylamide] | > 3000 nM | 14.9 nM | 23.6 nM | 11.6 nM |  |  |  |  |
| 2.3 nM | 7.63 | 25.4 nM | 7.68 | 14.9 nM | 22.6 nM | > 3000 nM | 8.09 | 8.02 | 9.22 | C=CC(=O)Nc1cc(Nc2ncnc(Nc3ccccc3C(C)(O)C(F)(F)F)n2)c(OC)cc1N(C)CCN(C)C (centres unmarked) [Compound 66, N-(2-((2-(dimethylamino)ethyl)(methyl)amino)-4-methoxy-5-(4-(2-(1,1,1-trifluoro-2-hydroxypropan-2-yl)phenylamino)-1,3,5-triazin-2-ylamino)phenyl) acrylamide] | > 3000 nM | > 3000 nM | 29.1 nM | 582 nM |  |  |  |  |
| 2.5 nM | 7.58 | 21.9 nM | 7.87 | 18.7 nM | 32.8 nM | 20.4 nM | 8.37 | 8.00 | 9.22 | C=CC(=O)Nc1cc(Nc2ncnc(Nc3cc(Cl)c(F)cc3C(C)(O)CC)n2)c(OC)cc1N(C)CCN(C)C (centres unmarked) [Compound 67, N-(5-(4-(5-chloro-4-fluoro-2-(2-hydroxybutan-2-yl)phenylamino)-1,3,5-triazin-2-ylamino)-2-((2-(dimethylamino)ethyl)(methyl)amino)-4-methoxyphenyl)acrylamide] | > 3000 nM | 47.9 nM | 46.3 nM | 16 nM |  |  |  |  |
| 8.3 nM | 6.67 | 89.8 nM | 7.29 | 34.9 nM | 74.7 nM | 12.4 nM | 7.71 | 7.51 | 8.89 | C=CC(=O)Nc1cc(Nc2nccc(Nc3cc(Cl)c(Cl)cc3C(C)(C)O)n2)c(OC)cc1N1CC[C@@H]1CN(C)C [Compound 71, (R)-N-(5-(4-(4,5-dichloro-2-(2-hydroxypropan-2-yl)phenylamino)pyrimidin-2-ylamino)-2-(2-((dimethylamino)methyl)azetidin-1-yl)-4-methoxyphenyl)a crylamide] | 2950 nM | 23.5 nM | 86.2 nM | 4.8 nM |  |  |  |  |

| SMILES | GI50 [1, 15] | pIC50 [4] | GI50 [5, 16] | pIC50 [6] | GI50 [7, 17] | GI50 [9, 18] | GI50 [10] | pIC50 [11] | pIC50 [13] | pIC50 [14] | GI50 [2] | GI50 [3] | GI50 [8] | GI50 [12] | GI50 ([1]; read-out: EGFR L858R and T790M mutation GI50 (nM)) | GI50 ([5]; read-out: EGFR Exon20 ASV insertion GI50 (nM)) | GI50 ([7]; read-out: EGFR WT A431 GI50 (nM)) | GI50 ([9]; read-out: EGFR Exon20 NPH insertion GI50 (nM)) |
| --- | --- | --- | --- | --- | --- | --- | --- | --- | --- | --- | --- | --- | --- | --- | --- | --- | --- | --- |
| C=CC(=O)Nc1cc(Nc2ncnc(Nc3cc(Cl)c(F)cc3C3(O)CCC3)n2)c(OC)cc1N(C)CCN(C)C [Compound 72, N-(5-(4-(5-chloro-4-fluoro-2-(1-hydroxycyclobutyl)phenylamino)-1,3,5-triazin-2-ylamino)-2-((2-(dimethylamino)ethyl)(methyl)amino)-4-methoxyphenyl)acrylamide formic acid salt] |  | 7.58 |  | 7.73 |  |  | 2.9 nM | 8.05 | 8.10 | 9.22 | > 3000 nM | 33.3 nM | 38.9 nM | 7.3 nM | 4.1 nM | 42.3 nM | 10.4 nM | 46.1 nM |
